The assay has as its target 13C,15N-wt-huPrP23-144 fibrils (Homo sapiens, UniProt P04156).
[1] abbreviates: 12 mM biradical in 6:3:1 d8-glycerol/D2O/H2O, 12 kHz MAS.

Read-outs that look alike come from different tables or passages of the source.

13C,15N-wt-huPrP23-144 fibrils, sequence (P04156 23-144 limits assumed): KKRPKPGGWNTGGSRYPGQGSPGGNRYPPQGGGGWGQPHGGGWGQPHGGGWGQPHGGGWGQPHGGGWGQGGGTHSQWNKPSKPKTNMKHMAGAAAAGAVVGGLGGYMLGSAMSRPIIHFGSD

Turning to TOAC-TOAC-Ser [TTS], the Optimal recycle delay (12 mM biradical in 6:3:1 d8-glycerol/D2O/H2O) amounted to 1.52 s. Further, under setting [1], the “1H T1” value is listed as 1.29 s, the εDNP is on record as 18-25 and the τDNP is 1.21 s. Also, for the setting “12 mM biradical, huPrP23-144 fibril samples”, the τDNP turned out to be 2 s.

The record behind these values is patent US12024498B2, “Radical compounds and methods of using thereof” (OHIO STATE INNOVATION FOUNDATION, priority 2017, dated 2024).
